Results as given in ChEMBL document CHEMBL3217737, “Discovery of a highly selective FLT3 kinase inhibitor from phenotypic cell viability profiling” (Medchemcomm, 2013).

How the values were obtained:
[1] = Cytotoxicity against human U87MG cells assessed as cell viability at 1 uM after 24 hrs by WST1 assay; assay type: functional, U-87MG ATCC; conditions: U-87 MG, read-out: Activity
[2] = system: MDA-MB-231; test: Cytotoxicity against human MDA-MB-231 cells assessed as cell viability at 1 uM after 24 hrs by WST1 assay; assay type: functional; conditions: MDA-MB-231, 24 h, read-out: Activity
[3] = Cytotoxicity against mouse NIH/3T3 cells assessed as cell viability at 1 uM after 24 hrs by WST1 assay; assay type: cell-based, NIH3T3; conditions: read-out: Activity
[4] = Cytotoxicity against rat L6 cells assessed as cell viability at 1 uM after 24 hrs by WST1 assay; assay type: cell-based; conditions: read-out: Activity
[5] = system: MV4-11; test: Cytotoxicity against human MV4-11 cells assessed as cell viability at 1 uM after 24 hrs by WST1 assay; assay type: functional; conditions: MV4-11, 24 h, read-out: Activity
[6] = system: MCF7; test: Cytotoxicity against human MCF7 cells assessed as cell viability at 1 uM after 24 hrs by WST1 assay; assay type: functional; conditions: MCF7, 24 h, read-out: Activity

COc1ccc(-c2n[nH]c3ncc(-c4cc([N+](=O)[O-])ccc4N)cc23)cc1
viability at 1 µM [1]: 97%
viability at 1 µM [2]: 114%
viability at 24 h, 1 µM [3]: 99%
viability at 24 h, 1 µM [4]: 92%
viability at 1 µM [5]: 92%
viability at 1 µM [6]: 102%

Nc1cc(Cl)ccc1-c1cnc2[nH]nc(-c3ccccc3)c2c1
viability at 1 µM [1]: 101%
viability at 1 µM [2]: 105%
viability at 24 h, 1 µM [3]: 111%
viability at 24 h, 1 µM [4]: 96%
viability at 1 µM [5]: 85%
viability at 1 µM [6]: 103%

COc1ccc(-c2n[nH]c3ncc(-c4ccccc4NCc4ccccc4)cc23)cc1
viability at 1 µM [1]: 95%
viability at 1 µM [2]: 109%
viability at 24 h, 1 µM [3]: 99%
viability at 24 h, 1 µM [4]: 102%
viability at 1 µM [5]: 97%
viability at 1 µM [6]: 98%

COc1ccc(-c2n[nH]c3ncc(-c4ccccc4NC(=O)NCc4ccccc4)cc23)cc1
viability at 1 µM [1]: 94%
viability at 1 µM [2]: 101%
viability at 24 h, 1 µM [3]: 94%
viability at 24 h, 1 µM [4]: 104%
viability at 1 µM [5]: 104%
viability at 1 µM [6]: 99%

Cc1n[nH]c2ncc(-c3ccc(Cl)cc3N)cc12
viability at 1 µM [1]: 99%
viability at 1 µM [2]: 107%
viability at 24 h, 1 µM [3]: 103%
viability at 24 h, 1 µM [4]: 102%
viability at 1 µM [5]: 91%
viability at 1 µM [6]: 102%

COc1ccc(-c2n[nH]c3ncc(-c4c(N)cccc4[N+](=O)[O-])cc23)cc1
viability at 1 µM [1]: 104%
viability at 1 µM [2]: 123%
viability at 24 h, 1 µM [3]: 102%
viability at 24 h, 1 µM [4]: 110%
viability at 1 µM [5]: 93%
viability at 1 µM [6]: 97%

COC(=O)c1cccc(N)c1-c1cnc2[nH]nc(-c3ccc(OC)cc3)c2c1
viability at 1 µM [1]: 102%
viability at 1 µM [2]: 110%
viability at 24 h, 1 µM [3]: 101%
viability at 24 h, 1 µM [4]: 105%
viability at 1 µM [5]: 90%
viability at 1 µM [6]: 89%

CNc1ccccc1-c1cnc2[nH]nc(-c3ccc(OC)cc3)c2c1
viability at 1 µM [1]: 100%
viability at 1 µM [2]: 114%
viability at 24 h, 1 µM [3]: 106%
viability at 24 h, 1 µM [4]: 109%
viability at 1 µM [5]: 86%
viability at 1 µM [6]: 101%

COc1ccc(-c2n[nH]c3ncc(-c4ccccc4N)cc23)cc1
viability at 1 µM [1]: 94%
viability at 1 µM [2]: 101%
viability at 24 h, 1 µM [3]: 94%
viability at 24 h, 1 µM [4]: 108%
viability at 1 µM [5]: 89%
viability at 1 µM [6]: 102%

COc1ccc(-c2n[nH]c3ncc(-c4cccc(F)c4N)cc23)cc1
viability at 1 µM [1]: 94%
viability at 1 µM [2]: 109%
viability at 24 h, 1 µM [3]: 108%
viability at 24 h, 1 µM [4]: 100%
viability at 1 µM [5]: 82%
viability at 1 µM [6]: 100%

COc1ccc(-c2n[nH]c3ncc(-c4cc(Br)ccc4N)cc23)cc1
viability at 1 µM [1]: 100%
viability at 1 µM [2]: 112%
viability at 24 h, 1 µM [3]: 108%
viability at 24 h, 1 µM [4]: 104%
viability at 1 µM [5]: 82%
viability at 1 µM [6]: 88%

COc1ccc(-c2n[nH]c3ncc(-c4ccc(F)cc4N)cc23)cc1
viability at 1 µM [1]: 94%
viability at 1 µM [2]: 95%
viability at 24 h, 1 µM [3]: 104%
viability at 24 h, 1 µM [4]: 104%
viability at 1 µM [5]: 94%
viability at 1 µM [6]: 97%
